Like-named read-outs stand apart in the source and are kept apart here.
Columns and labels:
[1] = tested on: MIA PaCa-2 cells (K-Ras G12C); assay: Ras-SOS cellular growth inhibition assay (CellTiter-Glo, 3D); format: cell-based
Method: MIA PaCa-2 (ATCC CRL-1420) and NCI-H1792 (ATCC CRL-5895) cell lines comprise a G12C mutation can be used to assess Ras cellular signaling in vitro, e.g., in response to a subject compound of the present disclosure. […] Cell culture medium (comprising, for example, MIA PaCa-2 cells) is prepared with DMEM/Ham's F12 (e.g., with stable Glutamine, 10% FCS, and 2.5% Horse Serum. NCI-H1792 culture medium is prepared with RPMI 1640 (e.g., with stable Glutamine) and 10% FCS. A CellTiter-Glo (CTG) luminescent based assay (Promega) is used to assess growth of the cells, as a measurement of the ability of the compounds herein to inhibit Ras signaling in the cells. The cells (e.g., 800-1200 per well) are seeded in their respective culture medium in standard tissue culture-treated ultra-low attachment surface 96-well format plates (Corning Costar #3474). The day after plating, cells are treated with a dilution series (e.g., a 9 point 3-fold dilution series) of the compounds herein (e.g., approximately 125 μl final volume per well). Cell viability can be monitored (e.g., approximately 5 days later) according to the manufacturer's recommended instructions, where the CellTiter-Glo reagent is added (e.g., approximately 65 μl), vigorously mixed, covered, and placed on a plate shaker (e.g., approximately for 20 min) to ensure sufficient cell lysis prior to assessment of luminescent signal. The IC50 values are determined using the four-parameter fit. The resulting IC50 value is a measurement of the ability of the compounds herein to reduce cell growth of Ras-driven cells as representative tumor cells.

[2] = tested on: NCI-H1975 cells (EGFR T790M L858R); assay: EGFR-SOS cellular inhibition assay (CellTiter-Glo, 3D); format: cell-based
SOS1 = SOS1 (Homo sapiens (Human), UniProt Q07889); assay: Ras-SOS interaction assay (HTRF); format: biochemical
[3] = Homo sapiens, MIA PaCa-2, 120 h, MIA PaCa-2, 3D proliferation, about 5 days, read-out: Bio-Cell-Prolif-3D (MiaPaca2 IC50)
[4] = Homo sapiens, MIA PaCa-2, MIA PaCa-2, read-out: IC50 in inhibiting MIA PaCa-2 cell growth
[5] = Homo sapiens, 120 h, NCI-H1975, 3D proliferation, about 5 days, read-out: Bio-Cell-Prolif-3D (H1975 IC50)
[6] = K-RasG13D utilized, read-out: IC50 inhibition of SOS
[7] = K-RasG13D, read-out: IC50 value against SOS1
[8] = Homo sapiens, NCI-H1975, EGFR T790M L858R, read-out: IC50 in inhibiting growth of NCI-H1975 cell line

Molecule | IC50 [1, 3] [nM] | IC50 [1, 4] [nM] | IC50 [2, 5] [nM] | IC50 (SOS1; [6]) [nM] | IC50 (SOS1; [7]) [nM] | IC50 [2, 8] [nM] | IC50 ([1]; MIA PaCa-2, 3D proliferation, about 5 days, read-out: Bio-Cell-Prolif-3D (MiaPaca2 IC50)) [nM] | IC50 ([1]; MIA PaCa-2, read-out: IC50 in inhibiting MIA PaCa-2 cell growth) [nM] | IC50 ([2]; NCI-H1975, 3D proliferation, about 5 days, read-out: Bio-Cell-Prolif-3D (H1975 IC50)) [nM] | IC50 ([2]; NCI-H1975, EGFR T790M L858R, read-out: IC50 in inhibiting growth of NCI-H1975 cell line) [nM]
Cc1nc(N[C@H](C)c2cccc(C(F)F)c2F)c2cc(C3CCS(=O)(=O)CC3)c(OCCO)nc2n1 [Compound 137, (R)-4-(4-((1-(3-(difluoromethyl)-2-fluorophenyl)ethyl)amino)-7-(2-hydroxyethoxy)-2-methylpyrido[2,3-d]pyrimidin-6-yl)tetrahydro-2H-thiopyran 1,1-dioxide] | ≤ 1000 | < 500 | ≤ 1000 | < 100 | < 50 |  |  |  |  | 
Cc1nc(N[C@H](C)c2cccc(C(F)(F)F)c2F)c2cc(C3CCS(=O)(=O)CC3)c(Cl)nc2n1 [Compound 262, (R)-4-(7-chloro-4-((1-(2-fluoro-3-(trifluoromethyl)phenyl)ethyl)amino)-2-methylpyrido[2,3-d]pyrimidin-6-yl)tetrahydro-2H-thiopyran 1,1-dioxide] | ≤ 1000 |  | ≤ 1000 | < 100 | < 50 | < 500 |  |  |  | 
Cc1nc(N[C@H](C)c2cccc(C(F)F)c2F)c2cc(N3CCN(C(C)C)CC3)c(OC3CN(C)C3)nc2n1 [Compound 370, (R)-N-(1-(3-(difluoromethyl)-2-fluorophenyl)ethyl)-6-(4-isopropylpiperazin-1-yl)-2-methyl-7-((1-methylazetidin-3-yl)oxy)pyrido[2,3-d]pyrimidin-4-amine] | ≤ 1000 |  | ≤ 1000 | < 100 | < 50 |  |  |  |  | 
Cc1nc(N[C@H](C)c2cccc(C(F)F)c2F)c2cc(C3(C#N)CC3)c(N3CCOCC3)nc2n1 [Compound 396, (R)-1-(4-((1-(3-(difluoromethyl)-2-fluorophenyl)ethyl)amino)-2-methyl-7-morpholinopyrido[2,3-d]pyrimidin-6-yl)cyclopropane-1-carbonitrile] | ≤ 1000 | < 500 | ≤ 1000 | < 100 | < 50 |  |  |  |  | 
Cc1nc(N[C@H](C)c2cccc(C(F)F)c2F)c2cc(C3CCN(C(C)C)CC3)c(OC3CN(C)C3)nc2n1 [Compound 410, (R)-N-(1-(3-(difluoromethyl)-2-fluorophenyl)ethyl)-6-(1-isopropylpiperidin-4-yl)-2-methyl-7-((1-methylazetidin-3-yl)oxy)pyrido[2,3-d]pyrimidin-4-amine] | ≤ 1000 | < 500 | ≤ 1000 | < 100 | < 50 | < 500 |  |  |  | 
COc1nc2nc(C)nc(N[C@H](C)c3cccc(C(F)F)c3F)c2cc1[C@H]1CCCN(C)C1 [Compound 135, N-((R)-1-(3-(difluoromethyl)-2-fluorophenyl)ethyl)-7-methoxy-2-methyl-6-((R)-1-methylpiperidin-3-yl)pyrido[2,3-d] pyrimidin-4-amine] | ≤ 1000 |  | ≤ 1000 | < 100 | < 50 |  |  |  |  | 
Cc1nc(N[C@H](C)c2cccc(C(F)F)c2F)c2cc(C3CCS(=O)(=O)CC3)c(OC3CN(C)C3)nc2n1 [Compound 191, (R)-4-(4-((1-(3-(difluoromethyl)-2-fluorophenyl)ethyl)amino)-2-methyl-7-((1-methylazetidin-3-yl)oxy)pyrido[2,3-d]pyrimidin-6-yl)tetrahydro-2H-thiopyran 1,1-dioxide] | 1000 to 10000 |  | 1000 to 10000 | < 100 | < 50 |  |  |  |  | 
COc1nc2nc(C)nc(N[C@H](C)c3cccc(C(F)F)c3F)c2cc1C1(C#N)CCS(=O)(=O)CC1 [Compound 126, (R)-4-(4-((1-(3-(difluoromethyl)-2-fluorophenyl)ethyl)amino)-7-methoxy-2-methylpyrido[2,3-d]pyrimidin-6-yl)tetrahydro-2H-thiopyran-4-carbonitrile 1,1-dioxide] | ≤ 1000 |  | ≤ 1000 | < 100 | < 50 | < 500 |  |  |  | 
CCN1CCC(c2cc3c(N[C@H](C)c4cccc(C(F)F)c4F)nc(C)nc3nc2OC2CN(C)C2)CC1 [Compound 318] | ≤ 1000 |  | ≤ 1000 | < 100 | < 50 |  |  |  |  | 
CC(C)N1CCC(c2cc3c(N[C@H](C)c4cccc(C(F)F)c4F)ncnc3nc2OC2COC2)CC1 [Compound 317, (R)-N-(1-(3-(difluoromethyl)-2-fluorophenyl)ethyl)-6-(1-isopropylpiperidin-4-yl)-7-(oxetan-3-yloxy)pyrido[2,3-d] pyrimidin-4-amine] | 1000 to 10000 |  | ≤ 1000 | < 100 | < 50 | < 500 |  |  |  | 
Cc1nc(N[C@H](C)c2cccc(C(F)F)c2F)c2cc(C3(C#N)CC3)c(N3CCN(C)CC3)nc2n1 [Compound 295, (R)-1-(4-((1-(3-(difluoromethyl)-2-fluorophenyl)ethyl)amino)-2-methyl-7-(4-methylpiperazin-1-yl)pyrido[2,3-d]pyrimidin-6-yl)cyclopropanecarbonitrile] | ≤ 1000 | < 500 | ≤ 1000 | < 100 | < 50 | < 500 |  |  |  | 
CCN1CCN(c2cc3c(N[C@H](C)c4cccc(C(F)F)c4F)nc(C)nc3nc2OC2COC2)CC1 [Compound 415, (R)-N-(1-(3-(difluoromethyl)-2-fluorophenyl)ethyl)-6-(4-ethylpiperazin-1-yl)-2-methyl-7-(oxetan-3-yloxy) pyrido[2,3-d]pyrimidin-4-amine] | ≤ 1000 | < 500 | ≤ 1000 | < 100 | < 50 | < 500 |  |  |  | 
COc1nc2nc(C)nc(N[C@H](C)c3cccc(C(F)(F)C(C)(C)OC4CNC4)c3F)c2cc1N1CCN(C(C)C)CC1 [Compound 243, (R)-N-(1-(3-(2-(azetidin-3-yloxy)-1,1-difluoro-2-methylpropyl)-2-fluorophenyl)ethyl)-6-(4-isopropylpiperazin-1-yl)-7-methoxy-2-methylpyrido[2,3-d]pyrimidin-4-amine] | ≤ 1000 | < 500 | ≤ 1000 | < 100 | < 50 | < 500 |  |  |  | 
Cc1nc(N[C@H](C)c2cccc(C(F)(F)C3CCN(C(C)C)CC3)c2)c2cc(C3CCN(C(C)C)CC3)c(Cl)nc2n1 [Compound 269, (R)-7-chloro-N-(1-(3-(difluoro(1-isopropylpiperidin-4-yl)methyl)phenyl)ethyl)-6-(1-isopropylpiperidin-4-yl)-2-methylpyrido[2,3-d] pyrimidin-4-amine] | ≤ 1000 | < 500 | ≤ 1000 | < 100 | < 50 | < 500 |  |  |  | 
4-(4-((1-(3-(difluoro(tetrahydrofuran-3-yl)methyl)-2-fluorophenyl)ethyl)amino)-7-methoxy-2-methylpyrido[2,3-d]pyrimidin-6-yl)tetrahydro-2H-thiopyran 1,1-dioxide [Compound 148] |  |  |  | < 100 | < 50 |  | ≤ 1000 | < 500 | ≤ 1000 | < 500
CC(C)N1CCC(c2cc3c(N[C@H](C)c4cccc(C(F)(F)F)c4F)ncnc3nc2Cl)CC1 [Compound 384, (R)-7-chloro-N-(1-(2-fluoro-3-(trifluoromethyl)phenyl)ethyl)-6-(1-isopropylpiperidin-4-yl)pyrido[2,3-d] pyrimidin-4-amine] | ≤ 1000 | < 500 | ≤ 1000 | < 100 | < 50 | < 500 |  |  |  | 
Cc1nc(N[C@H](C)c2cccc(C(F)F)c2F)c2cc(C3CCN(C)CC3)c(OCCN(C)C)nc2n1 [Compound 334, (R)-N-(1-(3-(difluoromethyl)-2-fluorophenyl)ethyl)-7-(2-(dimethylamino)ethoxy)-2-methyl-6-(1-methylpiperidin-4-yl)pyrido[2,3-d]pyrimidin-4-amine] |  | < 500 |  | < 100 | < 50 | < 500 |  |  |  | 
CCN1CCN(c2cc3c(N[C@H](C)c4cccc(C(F)F)c4F)nc(C)nc3nc2OCCN(C)C)CC1 [Compound 255, (R)-N-(1-(3-(difluoromethyl)-2-fluorophenyl)ethyl)-7-(2-(dimethylamino)ethoxy)-6-(4-ethylpiperazin-1-yl)-2-methylpyrido[2,3-d] pyrimidin-4-amine] | 1000 to 10000 |  | ≤ 1000 | < 100 | < 50 |  |  |  |  | 
